Each compound was assayed on p-ERK in NCI-H441 cells (KRAS G12V mutation) (assay: Cell p-ERK assay (HTRF) in NCI-H441 cells). Settings: Homo sapiens, NCI-H441, 3 h, NCI-H441 cells, 3 h compound incubation, HTRF p-ERK T202/Y204; read-out: H441 p-ERK IC50.
Assay type: cell-based, human
Procedure: AsPC-1 cells were purchased from ATCC, Cat. No. CRL-1682: NCI-H441 cells were purchased from ATCC, Cat. No. HTB-174: RPMI-1640 medium was purchased from Gibco, Cat. No. I1875-093: FBS was purchased from Gibco, Cat. No. 10099-141C: penicillin/streptomycin double-antibiotic solution (PS) was purchased from Gibco, Cat. No. 15140-122: trypsin (containing EDTA) was purchased from Gibco, Cat. No. 25200-072; DMSO was purchased from VWRAMRESCO, Cat. No. 0231-500ML; 96-well cell culture plates were purchased from Corning, Cat. No. 3599: white-bottomed, opaque 96-well plates were purchased from Cisbio, Cat. No. 66PL96025; Advance ERK phospho-T202/Y204 kit was purchased from Cisbio, Cat. No. 64AERPEH; cell counter was purchased from CHEMOMETEC, model: NC-200; microplate reader was purchased from PerkinElmer, model: EnVision.
AsPC-1, a human pancreatic cancer cell strain endogenously containing a KRAS^G12D mutation, was cultured in a complete medium containing RPMI-1640+10% FBS+1% PS. NCI-H441, a human non-small cell lung cancer cell strain endogenously containing a KRAS^G12V mutation, was cultured in a complete medium containing RPMI-1640+10% FBS+1% PS.
The cells were digested with trypsin (containing EDTA), collected in their corresponding complete media, and counted. The density of the cell suspensions was adjusted with their corresponding complete media, and 10000 AsPC-1 cells or 20000 NCI-H441 cells per well were seeded into a 96-well cell culture plate, with the volume of the medium in each well being 80 μL.
The cell culture plate was incubated in an incubator at 37° C. with 5% CO2 overnight. A series of 3.16-fold gradient dilutions of a 1000- compound stock solution were prepared with DMSO, and then diluted 200-fold with the complete medium described above to give 5′ compound stock solutions. On the day after cell seeding, 20 μL of the 5× compound stock solution was added to each cell culture well. As a result, the final concentration of the compound in the cell culture well became 1×, and the DMSO content in the well was 0.1%. In addition to the compound-treated wells described above, cell-containing DMSO control wells were also set. A complete medium containing 0.5% DMSO was added at 20 μL/well. After the mixture was well mixed, the culture plate was incubated in the incubator at 37° C. with 5% CO2 for another 3 h. The medium was then removed from the culture wells, and 50 μL of cell lysis buffer (from Advance ERK phospho-T202,Y204 kit) was added to each well. The mixture was well mixed and incubated for 30 min. Then, 16 μL of the mixture was transferred to a white-bottomed, opaque 96-well assay plate, and separately, 16 μL of cell lysis buffer was added to additional wells (serving as blank wells) in the assay plate. After the transfer was completed, 4 μL of p-ERK HTRF antibody mixture (from Advance ERK phospho-T202/Y204 kit) was added to each well of the assay plate, followed by a 4-hour incubation. The HTRF signal values (RLU) were then measured using a microplate reader, and the inhibition rate of the compound against p-ERK levels was calculated as follows: IR (%)=(RLUDMSO−RLUcompound)/(RLUDMSO−RLUblank)×100%, where RLUDMSO is the average HTRF signal value from the DMSO control well samples, RLUblank is the average HTRF signal value from the blank well samples, and RLUcompound is the HTRF signal value from the compound-treated well samples. Using an XLfit software, the IR (%) values were plotted against the logarithm of the compound concentrations, and the dose-response curves were fitted using the four-parameter method to calculate the IC50 values.

Row | SMILES | IC50 [nM]
1 | CCn1c(-c2cc(N3CCN(c4ccc(C)cc4)CC3)cnc2[C@H](C)OC)c2c3cc(ccc31)-c1csc(n1)C[C@H](NC(=O)[C@H]1[C@H](C)[C@@H]1C)C(=O)N1CCC[C@H](N1)C(=O)OCC1(CC1)C2 [Compound Z461, (1r,2R,3S)—N-((3′S,4′S,Z)-1′-ethyl-2′-(2-((S)-1-methoxyethyl)-5-(4-(p-tolyl)piperazin-1-yl)pyridin-3-yl)-5′,7′-dioxospiro[cyclopropane-1,10′-8-oxa-2(4,2)-thiazola-1(5,3)-indola-6(1,3)-pyridazinacycloundecaphan]-4′-yl)-2,3-dimethylcyclopropane-1-carboxamide] | 93
2 | CCn1c(-c2cc(C#CCN3CCCOCC3)cnc2[C@H](C)OC)c2c3cc(ccc31)-c1csc(n1)C[C@H](NC(=O)CC(C)(C)C)C(=O)N1CCC[C@H](N1)C(=O)OCC(C)(C)C2 (atropisomer, axis not shown; (Ra)) [Compound Z798, N-((6^3S,4S,Z)—(Ra)-1^2-(5-(3-(1,4-oxazepan-4-yl)propyn-1-yl)-2-((S)-1-methoxyethyl)pyridin-3-yl)-1^1ethyl-10,10-dimethyl-5,7-dioxo-6^1,6^2,6^3,6^4,6^5,6^6-hexahydro-1^1H-8-oxa-2(4,2)-thiazola-1(5,3)-indola-6(1,3)-pyridazinacycloundecaphane-4-yl)-3,3-dimethylbutanamide] | 3.89
3 | CCn1c(-c2cc(N3CCN(CCS(C)(=O)=O)CC3)cnc2[C@H](C)OC)c2c3cc(ccc31)-c1csc(n1)C[C@H](NC(=O)[C@H]1[C@H](C)[C@@H]1C)C(=O)N1CCC[C@H](N1)C(=O)OCC1(CC1)C2 (atropisomer, axis not shown; (Sa)) [Compound Z377, (1r,2R,3S)—N-((3′S,4′S,Z)-1′-ethyl-(Sa)-2′-(2-((S)-1-methoxyethyl)-5-(4-(2-(methylsulfonyl)ethyl)piperazin-1-yl)pyridin-3-yl)-5′,7′-dioxospiro[cyclopropane-1,10′-8-oxa-2(4,2)-thiazola-1(5,3)-indola-6(1,3)-pyridazinacycloundecaphan]-4′-yl)-2,3-dimethylcyclopropane-1-carboxamide] | 87.8
4 | CCn1c(-c2cc(C#CCN3CCCOCC3)cnc2[C@H](C)OC)c2c3cc(ccc31)-c1csc(n1)C[C@H](NC(=O)[C@H]1[C@H](C)[C@@H]1C)C(=O)N1CCC[C@H](N1)C(=O)OCC(C)(C)C2 (atropisomer, axis not shown; (Sa)) [Compound Z547, (1r,2R,3S)—N-((6^3S,4S,Z)—(Sa)-1′-(5-(3-(1,4-oxazepan-4-yl)prop-1-yn-1-yl)-2-((S)-1-methoxyethyl)pyridin-3-yl)-1′-ethyl-10,10-dimethyl-5,7-dioxo-6^1,6^2,6^3,6^4,6^5,6^6-hexahydro-1^1H-8-oxa-2(4,2)-thiazola-1(5,3)-indola-6(1,3)-pyridazinacycloundecaphane-4-yl)-2,3-dimethylcyclopropane-1-carboxamide] | 78.1
5 | CCn1c(-c2cc(C3(C(=O)N4CCN(C)CC4)CC3)cnc2[C@H](C)OC)c2c3cc(ccc31)-c1csc(n1)C[C@H](NC(=O)[C@H]1[C@H](C)[C@@H]1C)C(=O)N1CCC[C@H](N1)C(=O)OCC1(CC1)C2 [Compound Z347, (1r,2R,3b)-N-((3′S,4′S,Z)-1′-ethyl-2′-(2-(1-methoxyethyl)-5-(1-(4-methylpiperazine-1-carbonyl)cyclopropyl)pyridin-3-yl)-5′,7′-dioxospiro[cyclopropane-1,10′-8-oxa-2(4,2)-thiazola-1(5,3)-indola-6(1,3)-pyridazinacycloundecaphan]-4-yl)-2,3-dimethylcyclopropane-1-carboxamide] | 152

The remaining lines, values ahead:

Row | IC50 [nM] | SMILES
6 | 1.83 | CCn1c(-c2cc(C#CCN3CCCOCC3)cnc2[C@H](C)OC)c2c3cc(ccc31)-c1csc(n1)C[C@H](NC(=O)[C@H](C(C)C)N(C)S(C)(=O)=NC)C(=O)N1CCC[C@H](N1)C(=O)OCC(C)(C)C2 (mixture of isomers) [Compound Z912, (2S)—N-((6^3S,4S,Z)-1^2-(5-(3-(1,4-oxazepan-4-yl)prop-1-yn-1-yl)-2-((5)-1-methoxyethyl)pyridin-3-yl)-1^1-ethyl-10,10-dimethyl-5,7-dioxo-6^1,6^2,6^3,6^4,6^5,6^6-hexahydro-1^1H-8-oxa-2(4.2)-thiazola-1(5,3)-indola-6(1,3)-pyridazinacycloundecaphane-4-yl)-2-(N,N-dimethylmethylsulfonimidoyl)-3-methylbutanamide]
7 | 2.17 | CCn1c(-c2cc(C#CCN3CCN(C(C)=O)CC3)cnc2[C@H](C)OC)c2c3cc(ccc31)-c1csc(n1)C[C@H](Nc1nnc3cc(C)ccn13)C(=O)N1CCC[C@H](N1)C(=O)OCC(C)(C)C2 (atropisomer, axis not shown; (Ra)) [Compound Z981]
8 | 1.54 | CCn1c(-c2cc(C#CCN3CCN(C)S(=O)(=O)CC3)cnc2[C@H](C)OC)c2c3cc(ccc31)-c1csc(n1)C[C@H](Nc1nnc3cc(C)ccn13)C(=O)N1CCC[C@H](N1)C(=O)OCC(C)(C)C2 (atropisomer, axis not shown; (Ra)) [Compound Z1027, (6^3S,4S,Z)-1^1-ethyl-1^2-(Ra)-(2-((S)-1-methoxyethyl)-5-(3-(2-methyl-1,1-dioxido-1,2,5-thiadiazepan-5-yl)prop-1-yn-1-yl)pyridin-3-yl)-10,10-dimethyl-4-((7-methyl-[1,2,4]triazolo[4,3-a]pyridin-3-yl)amino)-6^1,6^2,6^3,6^4,6^5,6^6-hexahydro-1^1H-8-oxa-2(4,2)-thiazola-1(5,3)-indola-6(1,3)-pyridazinacycloundecaphane-5,7-dione]

Same assay, conditions: NCI-H441 cells, 3 h compound incubation, HTRF p-ERK T202/Y204; read-out: H441 p-ERK IC50

Row | IC50 [nM] | SMILES
9 | 3.35 | CCn1c(-c2cc(C#CCN3CC4CCC(C3)N4C(C)=O)cnc2[C@H](C)OC)c2c3cc(ccc31)-c1csc(n1)C[C@H](Nc1nnc3cc(C)ccn13)C(=O)N1CCC[C@H](N1)C(=O)OCC(C)(C)C2 (atropisomer, axis not shown; (Ra)) [Compound Z1014, (6^3S,4S,Z)-1^2-(5-(3-(8-acetyl-3,8-diazabicyclo[3.2.1]octan-3-yl)prop-1-yn-1-yl)-(Ra)-2-((S)-1-methoxyethyl)pyridin-3-yl)-1^1-ethyl-10,10-dimethyl-4-((7-methyl-[1,2,4]triazolo[4,3-a]pyridin-3-yl)amino)-6^1,6^2,6^3,6^4,6^5,6^6-hexahydro-1^1H-8-oxa-2(4,2)-thiazola-1(5,3)-indola-6(1,3)-pyridazinacycloundecaphane-5,7-dione]
10 | 5.46 | CCn1c(-c2cc(C#CCN3CCCOCC3)cnc2[C@H](C)OC)c2c3cc(ccc31)-c1csc(n1)C[C@H](Nc1nnc3cc(Br)ccn13)C(=O)N1CCC[C@H](N1)C(=O)OCC(C)(C)C2 [Compound Z960, (6-S,4S,Z)—(R4)-1^2-(5-(3-(1,4-oxazepan-4-yl)prop-1-yn-1-yl)-2-((S)-1-methoxyethyl)pyridin-3-yl)-4-((7-bromo-[1,2,4]triazolo[4,3-a]pyridin-3-yl)amino)-1^1-ethyl-10,10-dimethyl-6^1,6^2,6^3,6^4,6^5,6^6-hexahydro-1^1H-8-oxa-2(4,2)-thiazola-1(5,3)-indola-6(1,3)-pyridazinacycloundecaphane-5,7-dione]
